Structures are written as SMILES. In brackets after ≈: the same amount, converted by molar mass. Some results are limits rather than exact numbers.

Drawing on DBAASP, this text covers MIC for 9 molecules.

Test systems include Escherichia coli; Yersinia enterocolitica; Salmonella sp.
Common to all, as to assay: ≥ marks a high value that may be exact or a test limit, other limits are often not marked, values filed in µg/mL are converted to µM
For assay [1], the system named is Kocuria rhizophila DSM 348.
Assay [2] concerns Escherichia coli DH5alpha.
Assay [3] deals with Franconibacter helveticus DSM 18396.
Assay [4] concerns Bacillus subtilis DSM 347.
The test system of assay [5] is Pseudomonas aeruginosa DSM 1117.
Assay [6] concerns Staphylococcus epidermidis KCTC 1917.
Assay [7] deals with Staphylococcus aureus KCTC 1621.
Assay [8] deals with Salmonella typhimurium KCTC 1926.
Assay [9] deals with Escherichia coli DSM 1103.
For assay [10], the system named is Staphylococcus aureus DSM 1104.
Assay [11] concerns Escherichia coli KCTC 1682.
Assay [12] has as its system Bacillus subtilis KCTC 3068.
Assay [13] concerns Pseudomonas aeruginosa KCTC 1637.
Assay [14] concerns Staphylococcus epidermidis DSM 1798.
For assay [15], the system named is Escherichia coli ATCC 25922.
Assay [16] deals with Bacillus subtilis ATCC 6051.
Assay [17] concerns Escherichia coli NEB5alpha.
Assay [18] relates to Pseudomonas aeruginosa ATCC 27853.
Assay [19] relates to Staphylococcus aureus ATCC 25923.
In assay [20] the test system is Staphylococcus epidermidis ATCC 35984.
Assay [21] concerns Staphylococcus aureus ATCC 33591.
For assay [22], the system named is Candida albicans ATCC 10231.
The subject of assay [23] is Cryptococcus neoformans ATCC 32264.
Assay [24] concerns Salmonella enterica subsp. enterica serovar Enteritidis.
For assay [25], the system named is Staphylococcus aureus ATCC 43300.
Assay [26] relates to Staphylococcus aureus ATCC 29213.

For `CC[C@H](C)[C@H](NC(=O)CN)C(=O)NCC(=O)N[C@@H](CCCCN)C(=O)N[C@@H](Cc1ccccc1)C(=O)N[C@@H](C)C(=O)N[C@@H](Cc1cnc[nH]1)C(=O)N[C@@H](CO)C(=O)N[C@@H](C)C(=O)N[C@@H](CCCCN)C(=O)N[C@@H](CCCCN)C(=O)N[C@@H](Cc1ccccc1)C(=O)NCC(=O)N[C@@H](CCCCN)C(=O)N[C@@H](C)C(=O)N[C@@H](Cc1ccccc1)C(=O)N[C@H](C(=O)NCC(=O)N[C@@H](CCC(=O)O)C(=O)N[C@H](C(=O)N[C@@H](CCSC)C(=O)N[C@@H](CC(N)=O)C(=O)N[C@@H](CO)C(=O)O)[C@@H](C)CC)C(C)C` [GIGKFAHSAKKFGKAFVGEIMNS], the MIC is no less than 256 µM in [1], no less than 128 µM in assay [2], no less than 128 µM in [3] and no less than 32 µM in assay [4].
For the molecule `CC[C@H](C)[C@H](NC(=O)CN)C(=O)NCC(=O)N[C@@H](CCCCN)C(=O)N[C@@H](Cc1ccccc1)C(=O)N[C@@H](CC(C)C)C(=O)N[C@@H](Cc1cnc[nH]1)C(=O)N[C@@H](CO)C(=O)N[C@@H](C)C(=O)N[C@@H](CCCCN)C(=O)N[C@@H](CCCCN)C(=O)N[C@@H](Cc1ccccc1)C(=O)NCC(=O)N[C@@H](CCCCN)C(=O)N[C@@H](C)C(=O)N[C@@H](Cc1ccccc1)C(=O)N[C@H](C(=O)NCC(=O)N[C@@H](CCC(=O)O)C(=O)N[C@@H](C)C(=O)N[C@@H](CCSC)C(=O)N[C@@H](CC(N)=O)C(=O)N[C@@H](CO)C(=O)O)C(C)C` [GIGKFLHSAKKFGKAFVGEAMNS], the MIC in assay [1] is no less than 256 µM; in assay [2], no less than 128 µM; in assay [3], no less than 64 µM; in assay [4], 16 µM (≈ 38.8 µg/mL).
Turning to `NCCCC[C@H](NC(=O)[C@H](CCCN=C(N)N)NC(=O)CN)C(=O)N[C@@H](CCCCN)C(=O)N[C@@H](CCCN=C(N)N)C(=O)N[C@@H](CCCN=C(N)N)C(=O)N[C@@H](CCC(N)=O)C(=O)N[C@@H](CCCN=C(N)N)C(=O)N[C@@H](CCCN=C(N)N)C(=O)N[C@@H](CCCN=C(N)N)C(=O)N1CCC[C@H]1C(=O)N1CCC[C@H]1C(=O)N[C@@H](CCC(N)=O)C(=O)O` [GRKKRRQRRRPPQ], the MIC in assay [5] was no less than 128 µM; in assay [6], 4 µM (≈ 6.88 µg/mL); in assay [7] it was 4 µM (≈ 6.88 µg/mL); in assay [8] it was 8 µM (≈ 13.8 µg/mL); in assay [9], no less than 128 µM; in [10], no less than 128 µM. The MIC in assay [11] was 2 µM (≈ 3.44 µg/mL); in assay [12], 4 µM (≈ 6.88 µg/mL); in [13], 4 µM (≈ 6.88 µg/mL); in assay [14], no less than 128 µM.
Consider `CC[C@H](C)[C@H](N)C(=O)N[C@H](C(=O)N[C@@H](CC(C)C)C(=O)N[C@@H](CC(N)=O)C(=O)N1CCC[C@H]1C(=O)N[C@@H](Cc1c[nH]c2ccccc12)C(=O)N[C@@H](CC(=O)O)C(=O)N[C@@H](CCC(N)=O)C(=O)N[C@H](C(=O)N[C@@H](CCCCN)C(=O)O)C(C)C)C(C)C` [IVLNPWDQVK], for which the MIC in assay [15] is 1360 µM (≈ 1650 µg/mL); in [16], no less than 1360 µM; in [17], no less than 681 µM.
`CC(C)C[C@H](N)C(=O)N[C@@H](CCCCN)C(=O)N[C@@H](CCCCN)C(=O)N[C@@H](C)C(=O)N[C@@H](CCCCN)C(=O)N[C@@H](CCCCN)C(=O)N[C@@H](Cc1ccccc1)C(=O)NCC(=O)N[C@@H](CCCCN)C(=O)N[C@@H](C)C(=O)N[C@@H](Cc1ccccc1)C(=O)N[C@H](C(N)=O)C(C)C` [LKKAKKFGKAFV]: the MIC in assay [18] was 265 µM (≈ 362 µg/mL); in [19] it was greater than 375 µM; in assay [20], no less than 375 µM; in assay [21], no less than 375 µM.
`CC[C@H](C)[C@H](NC(=O)[C@H](C)NC(=O)CNC(=O)[C@H](CCCCN)NC(=O)[C@H](CCC(=O)O)NC(=O)[C@H](CCC(=O)O)NC(=O)[C@H](CC(=O)O)NC(=O)[C@H](CCC(=O)O)NC(=O)[C@H](CC(=O)O)NC(=O)[C@H](CCCN=C(N)N)NC(=O)CNC(=O)[C@H](CCC(N)=O)NC(=O)[C@H](CC(C)C)NC(=O)[C@H](CCCCN)NC(=O)[C@H](CC(=O)O)NC(=O)[C@@H](NC(=O)[C@@H](NC(=O)[C@H](Cc1cnc[nH]1)NC(=O)[C@@H](N)CCCN=C(N)N)[C@@H](C)CC)C(C)C)C(=O)N[C@H](C(=O)N[C@@H](CCCCN)C(=O)N[C@H](C(=O)N[C@@H](CCCCN)C(=O)NCC(=O)NCC(=O)N[C@@H](CC(C)C)C(=O)O)C(C)C)C(C)C` [RHIVDKLQGRDEDEEKGAIVKVKGGL]: the MIC in assay [16] and in assay [17] was no less than 500 µM in each case.
Take `CC(C)C[C@H](NC(=O)[C@H](C)NC(=O)[C@H](CCCN=C(N)N)NC(=O)[C@H](CC(C)C)NC(=O)[C@H](C)NC(=O)[C@H](CC(C)C)NC(=O)[C@H](CCCN=C(N)N)NC(=O)[C@H](CC(C)C)NC(=O)[C@H](C)NC(=O)[C@H](CC(C)C)NC(=O)[C@@H](N)CCCN=C(N)N)C(=O)N[C@@H](CCCN=C(N)N)C(=O)N[C@@H](C)C(=O)N[C@@H](C)C(=O)N[C@@H](CC(C)C)C(=O)N[C@@H](CCCN=C(N)N)C(=O)N[C@@H](CC(C)C)C(=O)N[C@@H](C)C(N)=O` [RLALRLALRALRAALRLA]: the MIC in assay [5] was no less than 115 µM; in [9], no less than 57 µM; in assay [10] it was 29 µM (≈ 58.5 µg/mL); in assay [14] it was 4 µM (≈ 8.07 µg/mL).
In the case of `CC[C@H](C)[C@H](NC(=O)[C@H](CCCNC(=N)N)NC(=O)[C@@H](NC(=O)[C@H](CCC(N)=O)NC(=O)[C@@H](N)CCCNC(=N)N)[C@@H](C)CC)C(=O)N[C@@H](Cc1c[nH]c2ccccc12)C(=O)N[C@@H](Cc1ccccc1)C(=O)N[C@@H](CCC(N)=O)C(=O)N[C@@H](CC(N)=O)C(=O)N[C@@H](CCCNC(=N)N)C(=O)N[C@@H](CCCNC(=N)N)C(=O)N[C@@H](CCSC)C(=O)N[C@@H](CCCNC(=N)N)C(=O)N[C@@H](Cc1c[nH]c2ccccc12)C(=O)N[C@@H](CCCNC(=N)N)C(=O)N[C@@H](CCCNC(=N)N)C(N)=O` [RQIRIWFQNRRMRWRR], the MIC was 25 µM (≈ 58.9 µg/mL) in the assay with Escherichia coli; 100 µM (≈ 236 µg/mL) in assay [22]; greater than 50 µM in assay [18]; no less than 50 µM in assay [23]; no less than 50 µM with Yersinia enterocolitica; 25 µM (≈ 58.9 µg/mL) in assay [24]. Besides, the MIC in [25] is greater than 50 µM; in assay [26], greater than 50 µM; in the assay on Salmonella sp. it was no less than 50 µM; in assay [21] it was 16 µM (≈ 37.7 µg/mL).
For the molecule `CC[C@H](C)[C@H](NC(=O)[C@H](CCC(N)=O)NC(=O)[C@@H](N)CCCN=C(N)N)C(=O)N[C@@H](CCCN=C(N)N)C(=O)N[C@@H](CCCN=C(N)N)C(=O)N[C@@H](Cc1c[nH]c2ccccc12)C(=O)N[C@@H](Cc1c[nH]c2ccccc12)C(=O)N[C@@H](CCC(N)=O)C(=O)N[C@@H](CCCN=C(N)N)C(N)=O` [RQIRRWWQR], the MIC against Escherichia coli is 9.03 µM (≈ 12.5 µg/mL); in [15], 18.1 µM (≈ 25 µg/mL); in [22], 10 µM (≈ 13.8 µg/mL); in assay [18], greater than 50 µM; in [23] it was 25 µM (≈ 34.6 µg/mL); with Yersinia enterocolitica, 18.1 µM (≈ 25 µg/mL). Also, the MIC is 18.1 µM (≈ 25 µg/mL) in [24], 18.1 µM (≈ 25 µg/mL) in assay [25], 36.1 µM (≈ 50 µg/mL) in assay [26] and 18.1 µM (≈ 25 µg/mL) with Salmonella sp..
